Key:
[1] = tested on: co-culture of keratinocytes and melanocytes; experiment: Cytotoxicity by incorporation of leucine in a keratinocyte/melanocyte co-culture; assay type: cell-based; settings: estimated by incorporation of leucine
Description: (§1) The melanogenesis-modulating effect of the compound of Example 2 was measured according to the method described in patent FR-A-2 734 825, and also in the article by R. Schmidt, P. Krien and M. Régnier, Anal. Biochem., 235(2), 113-18, (1996). This test is performed on a co-culture of keratinocytes and melanocytes.
(§2) The following were determined for the test compound: • the cytotoxicity, by estimating the incorporation of leucine, • the inhibitory activity on melanin synthesis, by estimating the ratio of the incorporation of thiouracil to the incorporation of leucine, relative to 100% of the control (the control corresponds to the test performed without test compound). The IC50 values (the concentration for which a 50% inhibition of melanogenesis is observed) were also determined.
(§3) The test was also performed with arbutin, which is a known depigmenting compound.

[2] = tested on: co-culture of keratinocytes and melanocytes; experiment: Inhibition of melanin synthesis (ratio of thiouracil to leucine incorporation) in a keratinocyte/melanocyte co-culture; assay type: cell-based; settings: for IC50: ratio of thiouracil to leucine incorporation relative to 100% of control, read-out: IC50 (concentration for which a 50% inhibition of melanogenesis is observed)
Description: as §1, §2, §3

IC50 [2] | Compound | Cytotoxicity [1] | Inhibition of melanogenesis (in words) ([2]; compared with arbutin)
≥ 100 µM | OC[C@H]1O[C@@H](Oc2ccc(O)cc2)[C@H](O)[C@@H](O)[C@@H]1O [Arbutin, arbutin, reference compound] | No | 
100 µM | OC[C@H]1O[C@@H](CC(O)c2ccc(O)cc2)[C@H](O)[C@@H](O)[C@@H]1O (some centres unmarked) [Example 2] | No | more efficient than arbutin

Source: patent US20080193400A1, “C-Glycoside Compounds and Use Thereof for Depigmenting the Skin” (priority 2005, published 2008)
